Experimental findings from US12630509B2, “Heterocyclic NMDA antagonists” (TAKEDA PHARMACEUTICAL COMPANY LIMITED, priority 2019, dated 2026) are described below.

The experiment deals with NMDA receptor composed of four subunits including two sets of heterodimers of NR1 and NR2B (GRIN1/GRIN2B) expressed in HEK 293 cells (Homo sapiens, UniProt Q13224). Briefly: NR2B Ca2+ influx assay. The class given is cell-based. Conditions: glutamic acid and glycine induced Ca2+ influx, HEK 293 cells expressing human GRIN1 and GRIN2B; for % inhibited(10 μM): final concentration 10 μM; for inhibition at 10 µM: HEK293, final concentration 10 μM, read-out: % inhibited(10 μM). The protocol:
The HEK 293 cells that express GRIN1 and GRIN2B were purchased from ChanTest (human NMDA (NR1/NR2B) receptor-expressing, stable replicating cell line (HEK 293) catalog no. CT6121).
Intracellular calcium-ion (Ca^2+) influx caused by glycine and glutamic acid respectively binding to NR1 and NR2B was used as an index of NMDA receptor activation.
The HEK 293 cells expressing GRIN1 and GRIN2B were cultured in a cell culture flask in an incubator (37° C., in 5% CO2) using a DMEM/F-12 (Cosmo Bio, 10-092-CM) medium supplemented with 10% FBS (fetal bovine serum, AusGene), 100 units/mL penicillin, 100 μg/mL streptomycin, 500 μg/mL neomycin, 100 μg/mL Zeocin (registered trademark of Invitrogen), and 5 μg/mL blasticidin.
On the day before the assay, the cells were detached from the flask by trypsinization, suspended in a seeding medium (DMEM (Invitrogen, 31053) supplemented with 10% FBS, 100 units/mL penicillin, and 100 μg/mL streptomycin) so as to be 8×10^5 cells/mL, seeded at 25 μL per well in a 384-well plate (Falcon, 356663) so as to be 20,000 cells/well, and cultured overnight using the incubator. On the day of the assay, tetracycline (Wako Pure Chemical, 209-16561) was diluted with the seeding medium at 2 μg/mL, and added at 25 μL/well to the plate into which the cells were seeded, and this was cultured for 2 hours in the incubator. Afterward, the medium was removed and washed with an assay buffer (137 mM NaCl, 4 mM KCl, 1.8 mM CaCl2), 10 mM HEPES (pH 7.2), 10 mM glucose, 0.1% BSA) at 50 μL/well. Next, a loading buffer (buffer wherein 2.5 μM Fluo-4 AM, 2 mM amaranth, and 1 mM tartrazine are added to the assay buffer) was added at 25 μL/well, and this was incubated in the incubator for 30 minutes and for 15 minutes at room temperature. Solutions wherein the Example compounds were diluted with the above-mentioned assay buffer so as to be 30 μM (final concentration 10 μM) were added at 25 μL/well, and these were left standing for 15 minutes at room temperature. Using FDSS7000EX/μCELL (Hamamatsu Photonics), an assay buffer including 30 μM glutamic acid and 30 μM glycine was added at 25 μL/well, and a fluorescence signal of an Excitation wavelength of 480 nm and an Emission wavelength of 540 nm was measured every 3 seconds for 5 minutes. The inhibitory activity was calculated as a relative activity value (inhibitory rate) wherein relative to an integrated value of florescence values of each well, an integrated value of fluorescence values of a well into which an assay buffer without glutamic acid and glycine was defined as 100% inhibition.

Chain of NMDA receptor composed of four subunits including two sets of heterodimers of NR1 and NR2B (GRIN1/GRIN2B) expressed in HEK 293 cells (Q13224 27-1484, other chains not shown): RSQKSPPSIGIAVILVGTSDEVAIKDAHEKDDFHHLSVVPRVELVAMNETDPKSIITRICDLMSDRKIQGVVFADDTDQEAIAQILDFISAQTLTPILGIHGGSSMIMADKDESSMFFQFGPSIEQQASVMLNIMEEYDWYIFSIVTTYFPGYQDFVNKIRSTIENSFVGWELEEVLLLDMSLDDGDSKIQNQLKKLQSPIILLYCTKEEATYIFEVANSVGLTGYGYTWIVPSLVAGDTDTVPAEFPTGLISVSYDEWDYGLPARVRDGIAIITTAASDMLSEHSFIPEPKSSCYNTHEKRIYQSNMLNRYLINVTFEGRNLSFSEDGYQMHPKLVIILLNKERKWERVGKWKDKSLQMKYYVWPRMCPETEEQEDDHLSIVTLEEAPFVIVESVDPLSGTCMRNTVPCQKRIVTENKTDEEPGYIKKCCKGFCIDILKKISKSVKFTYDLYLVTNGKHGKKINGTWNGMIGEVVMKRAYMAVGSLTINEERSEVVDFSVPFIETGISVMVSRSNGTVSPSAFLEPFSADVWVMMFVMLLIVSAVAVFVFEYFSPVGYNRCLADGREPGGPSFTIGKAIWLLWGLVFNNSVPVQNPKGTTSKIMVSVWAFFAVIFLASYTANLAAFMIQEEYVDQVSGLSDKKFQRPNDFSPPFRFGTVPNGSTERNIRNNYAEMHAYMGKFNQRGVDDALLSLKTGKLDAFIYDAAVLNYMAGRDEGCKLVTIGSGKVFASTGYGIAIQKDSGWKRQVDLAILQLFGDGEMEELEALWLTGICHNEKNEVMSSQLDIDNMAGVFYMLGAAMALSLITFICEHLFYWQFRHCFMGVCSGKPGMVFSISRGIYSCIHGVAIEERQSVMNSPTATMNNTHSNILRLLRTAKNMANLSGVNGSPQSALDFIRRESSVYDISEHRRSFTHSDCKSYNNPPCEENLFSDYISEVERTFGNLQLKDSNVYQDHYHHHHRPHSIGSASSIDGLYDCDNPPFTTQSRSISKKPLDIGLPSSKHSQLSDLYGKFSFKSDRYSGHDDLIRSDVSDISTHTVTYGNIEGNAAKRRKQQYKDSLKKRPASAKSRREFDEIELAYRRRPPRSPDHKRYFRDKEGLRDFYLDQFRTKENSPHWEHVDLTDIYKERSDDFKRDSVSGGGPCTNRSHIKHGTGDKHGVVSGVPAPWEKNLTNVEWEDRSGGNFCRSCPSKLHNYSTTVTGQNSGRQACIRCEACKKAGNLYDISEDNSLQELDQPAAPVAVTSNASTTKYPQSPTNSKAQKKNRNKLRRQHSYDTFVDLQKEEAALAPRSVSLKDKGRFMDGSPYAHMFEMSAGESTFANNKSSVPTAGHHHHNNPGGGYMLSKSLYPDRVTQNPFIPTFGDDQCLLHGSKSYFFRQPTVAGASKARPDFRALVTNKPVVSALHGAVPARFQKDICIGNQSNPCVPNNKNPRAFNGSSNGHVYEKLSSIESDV

Consider `Cc1ccc(Oc2ccc(CN3C(=O)CCC3C)cc2)cc1` (single isomer, unassigned) [Example 2, 5-methyl-1-{[4-(4-methylphenoxy)pheny]methyl}pyrrolidin-2-one (optical isomer)], for which the “% inhibited(10 μM)” value (10 µM) stood at 98%.

For the compound `Cc1ccc(Oc2ccc(CN3C(=O)CCC3C)cc2)cc1` (single isomer, unassigned) [Example 3, 5-methyl-1-{[4-(4-methylphenoxy)phenyl]methyl}pyrrolidin-2-one (optical isomer)], the “% inhibited(10 μM)” value (10 µM) is 99%.

For the compound `Cc1ccc(Oc2ccc(CN3C(=O)CCC3C)cc2)cc1` (stereo not shown) [Example 1, 5-methyl-1-{[4-(4-methylphenoxy)phenyl]methyl}pyrrolidin-2-one], the inhibition at 10 µM stood at 99%.

As for `Cc1ccc(Oc2cnc(CN3C(=O)CCC3C)cn2)cc1` (stereo not shown) [Example 4, 5-methyl-1-{[5-(4-methylphenoxy)pyrazin-2-yl]methyl}yrrolidin-2-one], the inhibition at 10 µM turned out to be 93%.

For `Cc1ccc(Oc2ncc(CN3C(=O)CCC3C)cn2)cc1` (stereo not shown) [Example 5, 5-methyl-1-{[2-(4-methylphenoxy)pyrimidin-5-yl]methyl}pyrrolidin-2-one], the inhibition at 10 µM turned out to be 91%.

Take `Cc1ccc(Oc2ccc(CN3C(=O)C[C@H](O)[C@@H]3C)cc2)cc1` [Example 6, (4S,5S)-4-hydroxy-5-methyl-1-{[4-(4-methylphenoxy)phenyl]methyl}pyrrolidin-2-one]: the inhibition at 10 µM is 97%.

As for `CC[C@H]1[C@@H](O)CC(=O)N1Cc1ccc(Oc2ccc(C)cc2)cc1` [Example 7, (4S,5S)-5-ethyl-4-hydroxy-1-{[4-(4-methylphenoxy)phenyl]methyl}pyrrolidin-2-one], the inhibition at 10 µM was 98%.

For the compound `Cc1ccc(Oc2cnc(CN3C(=O)CCC3C)nc2)cc1` (stereo not shown) [Example 8, 5-methyl-1{[5-(4-methylphenoxy)pyrimidin-2-yl]methyl}pyrrolidin-2-one], the inhibition at 10 µM came to 53%.

Consider `C[C@H]1[C@@H](O)CC(=O)N1Cc1ccc(Oc2ccc(F)cc2)cc1` [Example 9, (4S,5S)-1-{[4-(4-fluorophenoxy)phenyl]methyl}-4-hydroxy-5-methylpyrrolidin-2-one], for which the inhibition at 10 µM came out at 96%.

On to `Cc1ccc(Oc2ccc(CN3C(=O)C[C@@H](O)[C@@H]3C)cc2)cc1` [Example 10, (4R,5S)-4-hydroxy-5-methyl-1-{[4-(4-methylphenoxy)phenyl]methyl}pyrrolidin-2-one], for which the inhibition at 10 µM stood at 94%.

In the case of `Cc1ccc(Oc2ccc(CN3C(=O)C[C@H](O)[C@H]3C)cc2)cc1` [Example 11, (4S,5R)-4-hydroxy-5-methyl-1-{[4-(4-methylphenoxy)pheny]methyl}pyrrolidin-2-one], the inhibition at 10 µM was 91%.

Consider `Cc1ccc(Oc2ccc(CN3C(=O)C[C@@H](O)[C@H]3C)cc2)cc1` [Example 12, (4R,5R)-4-hydroxy-5-methyl-1-{[4-(4-methylphenoxy)pheny]methyl}pyrrolidin-2-one], for which the inhibition at 10 µM was 93%.

In the case of `Cc1ccc(Oc2ccc(CN3C(=O)C[C@H](O)[C@@H]3C)cn2)cc1` [Example 13, (4S,5S)-4-hydroxy-5-methyl-1-{[6-(4-methylphenoxy)pyridin-3-yl]methyl}pyrrolidin-2-one], the inhibition at 10 µM was determined as 97%.

`Cc1ccc(Oc2ccc(CN3C(=O)C[C@H](O)[C@@H]3C)cn2)cc1.Cl` [Example 14, (4S,5S)-4-hydroxy-5-methyl-1-{[6-(4-methylphenoxy)pyridin-3-yl]methyl}pyrrolidin-2-one]: the “% inhibited(10 μM)” value came to 96%.

In the case of `Cc1ccc(Oc2ncc(CN3C(=O)C[C@H](O)[C@@H]3C)cn2)cc1` [Example 15, (4S,5S)-4-hydroxy-5-methyl-1-{[2-(4-methylphenoxy)pyrimidin-5-yl]methyl}pyrrolidin-2-one], the inhibition at 10 µM was 90%.

As to `Cc1ccc(Oc2ccc(CN3C(=O)C[C@H](O)[C@@H]3C)nc2)cc1` [Example 16, (4S,5S)-4-hydroxy-5-methyl-1-{[5-(4-methylphenoxy)pyridin-2-yl]methyl}pyrrolidin-2-one], the inhibition at 10 µM worked out at 95%.

With `Cc1ccc(Oc2ccc(CN3C(=O)OC[C@@H]3C)cc2)cc1` [Example 18, (4S)-4-methy-3-{[4-(4-methylphenoxy)phenyl]methyl}1,3-oxazolidin-2-one], the inhibition at 10 µM came to 98%.

Turning to `Cc1ccc(Oc2cnc(CN3C(=O)C[C@H](O)[C@@H]3C)cn2)cc1` [Example 19, (4S,5S)-4-hydroxy-5-methyl-1-{[5-(4-methylphenoxy)pyrazin-2-yl]methyl}pyrrolidin-2-one], the inhibition at 10 µM turned out to be 82%.

Turning to `Cc1ccc(Oc2ccc(CN3C(=O)OC[C@@H]3C)cn2)cc1` [Example 20, (4S)-4-methyl-3-{[6-(4-methylphenoxy)pyridin-3-yl]methyl}-1,3-oxazolidin-2-one], the inhibition at 10 µM came out at 97%.

For `Cc1ccc(Oc2ccc(CN3C(=O)CC[C@@H]3C)cn2)cc1` [Example 21, (5S)-5-methyl-1-{[6-(4-methylphenoxy)pyridin-3-yl]methyl}pyrrolidin-2-one], the inhibition at 10 µM was 98%.

For the compound `Cc1ccc(Oc2ncc(CN3C(=O)CC[C@@H]3C)cn2)cc1` [Example 22, (5S)-5-methyl-1-{[2-(4-methylphenoxy)pyrimidin-5-yl]methyl}pyrrolidin-2-one], the inhibition at 10 µM worked out at 95%.

`Cc1ccc(Oc2ncc(CN3C(=O)OC[C@@H]3C)cn2)c(F)c1` [Example 23, (4S)-3-{[2-(2-fluoro-4-methylphenoxy)pyrimidin-5-yl]methyl}-4-methyl-1,3-oxazolidin-2-one]: the inhibition at 10 µM worked out at 94%.

Take `C[C@H]1COC(=O)N1Cc1cnc(Oc2c(F)cc(F)cc2F)nc1` [Example 24, (4S)-4-methyl-3-{[2-(2,4,6-trifluorophenoxy)pyrimidin-5-yl]methyl}-1,3-oxazolidin-2-one]: the inhibition at 10 µM was found to be 93%.

Take `Cc1ccc(Oc2ccc(CN3C(=O)OC[C@@H]3C)cn2)c(F)c1` [Example 25, (4S)-3-{[6-(2-fluoro-4-methylphenoxy)pyridin-3-y]methyl}-4-methyl-1,3-oxazolidin-2-one]: the inhibition at 10 µM came out at 96%.

On to `Cc1ccc(Oc2ccc(CN3C(=O)C[C@H](O)[C@@H]3C)cn2)c(F)c1` [Example 26, (4S,5S)-1-{[6-(2-fluoro-4-methylphenoxy)pyridin-3-yl]methyl}-4-hydroxy-5-methylpyrrolidin-2-one], for which the inhibition at 10 µM came to 97%.

Consider `C[C@H]1[C@@H](O)CC(=O)N1Cc1ccc(Oc2c(F)cc(F)cc2F)nc1` [Example 27, (4S,5S)-4-hydroxy-5-methyl-1-{[6-(2,4,6-trifluorophenoxy)pyridin-3-yl]methyl}pyrrolidin-2-one], for which the inhibition at 10 µM amounted to 97%.

On to `C[C@H]1COC(=O)N1Cc1ccc(Oc2c(F)cc(F)cc2F)nc1` [Example 28, (4S)-4-methyl-3-{[6-(2,4,6-trifluorophenoxy)pyridin-3-yl]methyl}-1,3-oxazolidin-2-one], for which the inhibition at 10 µM is 96%.

For the compound `Cc1ccc(Oc2ccc(CN3C(=O)CCC3C(F)(F)F)cn2)cc1` (stereo not shown) [Example 29, 1-{[6-(4-methylphenoxy)pyridin-3-yl]methyl}-5-(trifluoromethyl)pyrrolidin-2-one], the inhibition at 10 µM was determined as 93%.

On to `Cc1ccc(Oc2ncc(CN3C(=O)OC[C@@H]3C)cn2)cc1` [Example 30, (4S)-4-methyl-3-{[2-(4-methylphenoxy)pyrimidin-5-yl]methyl}-1,3-oxazolidin-2-one], for which the inhibition at 10 µM was found to be 90%.

In the case of `Cc1cc(F)c(Oc2ccc(CN3C(=O)C[C@H](O)[C@@H]3C)cn2)c(F)c1` [Example 31, (4S,5S)-1{[-6-(2,6-difluoro-4-methylphenoxy)pyridin-3-yl]methyl}4-hydroxy-5-methylpyrrolidin-2-one], the inhibition at 10 µM was found to be 97%.

For the compound `Cc1cc(F)c(Oc2ncc(CN3C(=O)OC[C@@H]3C)cn2)c(F)c1` [Example 32, (4S)-3-{[2-(2,6-difluoro-4-methylphenoxy)pyrimidin-5-yl]methyl}-4-methyl-1,3-oxazolidin-2-one], the inhibition at 10 µM is 92%.
